According to US20240109895A1, “OXASPIRO SUBSTITUTED PYRROLOPYRAZOLE DERIVATIVE, INTERMEDIATE THEREOF, AND PREPARATION METHOD THEREFOR” (SHANGHAI HAIYAN PHARMACEUTICAL TECHNOLOGY CO., LTD., priority 2020, published 2024):

Columns and labels:
cAMP = experiment: HTRF-cAMP cell assay
β-arrestin = β-arrestin cell assay

CC(C)[C@@H]1C[C@H](NCC[C@@]2(c3ccccn3)CCOC3(CCCC3)C2)c2ccnn21 [Compound I-1]
EC50 (cAMP; 0.75 h, read-out: cAMP EC50(nM)): 6 nM | Emax (cAMP; read-out: cAMP Emax(%) Morphine is 100%): 86.4% | Emax (β-arrestin; 1.5 h, read-out: β-arrestin Emax(%) Morphine is 100%): 1.3% | bias (cAMP versus β-arrestin) (β-arrestin; comparison of Table 1 and Table 2): good bias
